The target of experiment [1] is EML4-ALK wt v1 in NIH-3T3 cells (Homo sapiens, UniProt Q9UM73).
The target of experiment [2] is T1, human recombinant wild-type ALK kinase domain (amino acids 1093-1411) (Homo sapiens, UniProt Q9UM73).
T1 construct: ALK kinase domain (amino acids 1093-1411); made in house
The experiment is described as follows: ALK enzyme assay 2 (microfluidic mobility shift assay).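 Note: kinase reaction run 1 h at room temperature, conversion quantified by electrophoretic separation of fluorescent peptide substrate from phosphorylated product, about 15-20% turnover without inhibitor.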 Format: biochemical.
Description: The reactions were incubated for 1 h at room temperature, stopped by the addition of 0.1 M EDTA, pH 8, and the extent of reactions (˜15-20% conversion with no inhibitor) was determined after electrophoretic separation of the fluorescently labeled peptide substrate and phosphorylated product on an LabChip EZ Reader II (Caliper Life Sciences, Hopkinton, Mass.).

As usually defined, the IC50 is the concentration needed to halve the response being measured. As a reminder, the Ki is the dissociation constant of the complex between target and ligand, obtained from inhibition or displacement.

Sequence of EML4-ALK wt v1 in NIH-3T3 cells (Q9UM73 with tags, fused parts or gaps): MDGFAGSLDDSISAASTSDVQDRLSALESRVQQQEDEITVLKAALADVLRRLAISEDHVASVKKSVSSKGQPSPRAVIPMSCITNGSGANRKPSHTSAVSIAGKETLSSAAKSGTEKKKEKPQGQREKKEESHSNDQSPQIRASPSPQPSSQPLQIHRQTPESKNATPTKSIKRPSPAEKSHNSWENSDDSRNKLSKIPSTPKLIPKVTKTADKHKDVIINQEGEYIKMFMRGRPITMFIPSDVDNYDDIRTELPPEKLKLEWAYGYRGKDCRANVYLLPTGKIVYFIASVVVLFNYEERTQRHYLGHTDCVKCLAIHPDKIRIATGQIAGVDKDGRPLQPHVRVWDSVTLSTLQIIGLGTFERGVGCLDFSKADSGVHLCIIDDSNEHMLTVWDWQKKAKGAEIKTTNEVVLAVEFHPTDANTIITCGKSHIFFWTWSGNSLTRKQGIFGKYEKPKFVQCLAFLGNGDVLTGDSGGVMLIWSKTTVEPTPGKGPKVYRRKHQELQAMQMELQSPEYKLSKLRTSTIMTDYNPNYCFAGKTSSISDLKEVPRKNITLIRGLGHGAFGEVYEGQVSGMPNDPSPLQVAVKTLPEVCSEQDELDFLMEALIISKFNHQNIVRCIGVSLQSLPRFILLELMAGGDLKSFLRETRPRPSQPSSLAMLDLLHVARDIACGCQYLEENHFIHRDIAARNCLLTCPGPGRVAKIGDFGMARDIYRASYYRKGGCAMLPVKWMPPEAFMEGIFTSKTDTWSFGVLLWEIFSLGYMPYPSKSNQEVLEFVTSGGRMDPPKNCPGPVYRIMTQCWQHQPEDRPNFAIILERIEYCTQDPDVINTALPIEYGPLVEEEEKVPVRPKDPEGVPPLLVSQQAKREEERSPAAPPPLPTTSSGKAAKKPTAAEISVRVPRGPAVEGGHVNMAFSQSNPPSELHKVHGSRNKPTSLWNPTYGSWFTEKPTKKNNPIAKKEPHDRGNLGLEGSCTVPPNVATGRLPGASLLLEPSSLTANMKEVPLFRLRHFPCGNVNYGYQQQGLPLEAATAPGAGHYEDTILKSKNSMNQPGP
T1 sequence (Q9UM73 1093-1411): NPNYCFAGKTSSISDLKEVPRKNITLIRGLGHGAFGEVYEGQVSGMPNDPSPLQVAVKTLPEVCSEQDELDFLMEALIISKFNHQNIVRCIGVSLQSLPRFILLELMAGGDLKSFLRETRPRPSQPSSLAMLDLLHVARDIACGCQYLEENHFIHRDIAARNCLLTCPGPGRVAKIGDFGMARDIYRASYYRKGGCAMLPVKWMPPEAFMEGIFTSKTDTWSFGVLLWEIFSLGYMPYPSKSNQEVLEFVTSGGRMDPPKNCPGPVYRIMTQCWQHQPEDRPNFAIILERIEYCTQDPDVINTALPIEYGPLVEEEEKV

In experiment [1], `COc1nc(CO)ccc1-c1cnc(N)c(O[C@H](C)c2cc(F)ccc2-n2nccn2)c1` [Example 93, (6′-amino-5′-{(1R)-1-[5-fluoro-2-(2H-1,2,3-triazol-2-yl)phenyl]ethoxy}-2-methoxy-3,3′-bipyridin-6-yl)methanol] had a 50% inhibitory concentration (IC50) of 12.7 nM. For the same compound, the Ki in experiment [2] came to 0.43 nM.
On the same counts, the results for `CC(O)c1ncc(-c2cnc(N)c(O[C@H](C)c3cc(F)ccc3-n3nccn3)c2)s1` (stereo partly drawn) [Example 94, 1-[5-(6-amino-5-{(1R)-1-[5-fluoro-2-(2H-1,2,3-triazol-2-yl)phenyl]ethoxy}pyridin-3-yl)-1,3-thiazol-2-yl]ethanol] are 22.1 nM and less than 0.49 nM.
`Cc1nn(CS(C)(=O)=O)c(C)c1-c1cnc(N)c(O[C@H](C)c2cc(F)ccc2-n2nccn2)c1` [Example 95, 5-{3,5-dimethyl-1-[(methylsulfonyl)methyl]-1H-pyrazol-4-yl}-3-{(1R)-1-[5-fluoro-2-(2H-1,2,3-triazol-2-yl)phenyl]ethoxy}pyridin-2-amine] registered a concentration for half-maximal inhibition (IC50) in experiment [1] of 13.8 nM. Also, the Ki in experiment [2] was found to be 0.2 nM.
On to `Cc1nc(C(C)O)sc1-c1cnc(N)c(O[C@H](C)c2cc(F)ccc2-n2nccn2)c1` (stereo partly drawn) [Example 96, 1-[5-(6-amino-5-{(1R)-1-[5-fluoro-2-(2H-1,2,3-triazol-2-yl)phenyl]ethoxy}pyridin-3-yl)-4-methyl-1,3-thiazol-2-yl]ethanol], for which inhibition in experiment [1] was half-maximal at 17.1 nM (IC50). Moreover, in experiment [2], the Ki was less than 0.2 nM.
As for `C[C@@H](Oc1cc(-c2cnc(CO)n2C)cnc1N)c1cc(F)ccc1-n1nccn1` [Example 97, [5-(6-amino-5-{(1R)-1-[5-fluoro-2-(2H-1,2,3-triazol-2-yl)phenyl]ethoxy}pyridin-3-yl)-1-methyl-1H-imidazol-2-yl]methanol], the midpoint of inhibition in experiment [1], the IC50, lay at 41.3 nM. In addition, the inhibition constant (Ki) in experiment [2] worked out at 0.327 nM.
For `C[C@@H](Oc1cc(-c2cnn([C@H]3CCCNC3)c2)cnc1N)c1cc(F)ccc1-n1nccn1` [Example 98, 3-{(1R)-1-[5-fluoro-2-(2H-1,2,3-triazol-2-yl)phenyl]ethoxy}-5-[1-(piperidin-3-yl)-1H-pyrazol-4-yl]pyridin-2-amine] the same measures were 10.8 nM and less than 0.2 nM.
Turning to `C[C@@H](Oc1cc(-c2ccc3c(c2)CCS3(=O)=O)cnc1N)c1cc(F)ccc1-n1nccn1` [Example 99, 5-(1,1-dioxido-2,3-dihydro-1-benzothiophen-5-yl)-3-{(1R)-1-[5-fluoro-2-(2H-1,2,3-triazol-2-yl)phenyl]ethoxy}pyridin-2-amine], it took 13.2 nM to reach half-maximal inhibition in experiment [1] (IC50). The inhibition constant (Ki) in experiment [2] was found to be 1.1 nM.
As for `CNCc1ccc(-c2cnc(N)c(O[C@H](C)c3cc(F)ccc3-n3nccn3)c2)c(OC)n1` [Example 100, 5-{(1R)-1-[5-fluoro-2-(2H-1,2,3-triazol-2-yl)phenyl]ethoxy}-2′-methoxy-6′-[(methylamino)methyl]-3,3′-bipyridin-6-amine], half-maximal inhibition in experiment [1] (IC50) was put at 12.2 nM. Besides, in experiment [2], the Ki was less than 0.2 nM.
On the same counts, the results for `COc1ccc(S(C)(=O)=O)cc1-c1cnc(N)c(O[C@H](C)c2cc(F)ccc2-n2nccn2)c1` [Example 101, 3-{(1R)-1-[5-fluoro-2-(2H-1,2,3-triazol-2-yl)phenyl]ethoxy}-5-[2-methoxy-5-(methylsulfonyl)phenyl] pyridin-2-amine] are 3.21 nM and less than 0.2 nM.
`COc1ccc(F)cc1C(C)Oc1nc(-c2cc(S(C)(=O)=O)cnc2OC)cnc1N` (centres unmarked) [Example 102, 3-[1-(5-fluoro-2-methoxyphenyl)ethoxy]-5-[2-methoxy-5-(methylsulfonyl)pyridin-3-yl]pyrazin-2-amine]: the IC50 in experiment [1] was 89.3 nM. Moreover, the Ki in experiment [2] stood at 1.21 nM.
For `Cc1nc(C(C)(C)O)sc1-c1cnc(N)c(O[C@H](C)c2cc(F)ccc2-n2nccn2)n1` [Example 103, 2-[5-(5-amino-6-{(1R)-1-[5-fluoro-2-(2H-1,2,3-triazol-2-yl)phenyl]ethoxy}pyrazin-2-yl)-4-methyl-1,3-thiazol-2-yl]propan-2-ol] the same measures were 15 nM and less than 0.2 nM.
For `C[C@@H](Oc1cc(-c2csc(CO)n2)cnc1N)c1cc(F)ccc1-n1nccn1` [Example 105, [4-(6-amino-5-{(1R)-1-[5-fluoro-2-(2H-1,2,3-triazol-2-yl)phenyl]ethoxy}pyridin-3-yl)-1,3-thiazol-2-yl]methanol] the same measures were 166 nM and 4.1 nM.
For `C[C@@H](Oc1cc(-c2cnc(CO)s2)cnc1N)c1cc(F)ccc1-n1nccn1` [Example 106, [5-(6-amino-5-{(1R)-1-[5-fluoro-2-(2H-1,2,3-triazol-2-yl)phenyl]ethoxy}pyridin-3-yl)-1,3-thiazol-2-yl]methanol] the same measures were 21.5 nM and 0.68 nM.
The compound `Cc1nc(CO)sc1-c1cnc(N)c(O[C@H](C)c2cc(F)ccc2-n2nccn2)c1` [Example 107, [5-(6-amino-5-{(1R)-1-[5-fluoro-2-(2H-1,2,3-triazol-2-yl)phenyl]ethoxy}pyridin-3-yl)-4-methyl-1,3-thiazol-2-yl]methanol] showed an IC50 in experiment [1] of 9.92 nM. For the same compound, the inhibition constant Ki in experiment [2] is less than 0.2 nM.
As for `CCc1nc(CO)sc1-c1cnc(N)c(O[C@H](C)c2cc(F)ccc2-n2nccn2)c1` [Example 108, [5-(6-amino-5-{(1R)-1-[5-fluoro-2-(2H-1,2,3-triazol-2-yl)phenyl]ethoxy}pyridin-3-yl)-4-ethyl-1,3-thiazol-2-yl]methanol], inhibition in experiment [1] was half-maximal at 9.38 nM (IC50). In addition, the Ki in experiment [2] was less than 0.2 nM.
`C[C@@H](Oc1cc(-c2cnc(CS(C)(=O)=O)s2)cnc1N)c1cc(F)ccc1-n1nccn1` [Example 109, 3-{(1R)-1-[5-fluoro-2-(2H-1,2,3-triazol-2-yl)phenyl]ethoxy}-5-{2-[(methylsulfonyl)methyl]-1,3-thiazol-5-yl}pyridin-2-amine] gave an IC50 in experiment [1] of 9.15 nM. Further, the Ki in experiment [2] amounted to 0.58 nM.
On the same counts, the results for `C[C@@H](Oc1cc(-c2ccc3c(c2)S(=O)(=O)CC3O)cnc1N)c1cc(F)ccc1-n1nccn1` (stereo partly drawn) [Example 110, 6-(6-amino-5-{(1R)-1-[5-fluoro-2-(2H-1,2,3-triazol-2-yl)pheny]ethoxy}pyridin-3-yl)-2,3-dihydro-1-benzothiophene-3-ol 1,1-dioxide] are 34.4 nM and 0.47 nM.
For `C[C@@H](Oc1cc(-c2ccc(C(C)(C)O)c(S(C)(=O)=O)c2)cnc1N)c1cc(F)ccc1-n1nccn1` [Example 111, 2-[4-(6-amino-5-{(1R)-1-[5-fluoro-2-(2H-1,2,3-triazol-2-yl)phenyl]ethoxy}pyridin-3-yl)-2-(methylsulfonyl)phenyl]propan-2-ol] the same measures were 0.622 nM and less than 0.2 nM.
For `C[C@@H](Oc1cc(-c2cccc(P(C)(C)=O)c2)cnc1N)c1cc(F)ccc1-n1nccn1` [Example 112, 5-[3-(dimethylphosphoryl)phenyl]-3-{(1R)-1-[5-fluoro-2-(2H-1,2,3-triazol-2-yl)phenyl]ethoxy}pyridin-2-amine] the same measures were 38.1 nM and 0.203 nM.
Consider `C[C@@H](Oc1cc(-c2cccc(S(N)(=O)=O)c2)cnc1N)c1cc(F)ccc1-n1nccn1` [Example 113, 3-(6-amino-5-{(1R)-1-[5-fluoro-2-(2H-1,2,3-triazol-2-yl)phenyl]ethoxy}pyridin-3-yl)benzenesulfonamide], for which 10.1 nM corresponded to half-maximal inhibition in experiment [1] (IC50). Besides, in experiment [2], the inhibitory constant (Ki) was determined as 0.26 nM.
For `Cc1cc(-c2cnc(N)c(O[C@H](C)c3cc(F)ccc3-n3nccn3)c2)cc(P(C)(C)=O)c1` [Example 114, 5-[3-(dimethylphosphoryl)-5-methylphenyl]-3-{(1R)-1-[5-fluoro-2-(2H-1,2,3-triazol-2-yl)phenyl]ethoxy}pyridin-2-amine] the same measures were 89.6 nM and 1.3 nM.
For `Cc1nc(-c2cnc(N)c(O[C@H](C)c3cc(F)ccc3-n3nccn3)c2)sc1C(C)O` (stereo partly drawn) [Example 115, 1-[2-(6-amino-5-{(1R)-1-[5-fluoro-2-(2H-1,2,3-triazol-2-yl)phenyl]ethoxy}pyridin-3-yl)-4-methyl-1,3-thiazol-5-yl]ethanol] the same measures were 289 nM and 4.37 nM.
On the same counts, the results for `C[C@@H](Oc1cc(-c2c[nH]nc2C#N)cnc1N)c1cc(F)ccc1-n1nccn1` [Example 116, 4-(6-amino-5-{(1R)-1-[5-fluoro-2-(2H-1,2,3-triazol-2-yl)phenyl]ethoxy}pyridin-3-yl)-1H-pyrazole-3-carbonitrile] are 4.17 nM and less than 0.2 nM.
For `Cc1ccc(-c2cnc(N)c(O[C@H](C)c3cc(F)ccc3-n3nccn3)c2)cn1` [Example 117, 5-{(1R)-1-[5-fluoro-2-(2H-1,2,3-triazol-2-yl)phenyl]ethoxy}-6′-methyl-3,3′-bipyridin-6-amine], the half-maximal inhibitory concentration (IC50) in experiment [1] came to 10.3 nM. In addition, the inhibition constant (Ki) in experiment [2] was 0.77 nM.
On the same counts, the results for `COc1cc(C(N)=O)ccc1-c1cnc(N)c(O[C@H](C)c2cc(F)ccc2-n2nccn2)c1` [Example 118, 4-(6-amino-5-{(1R)-1-[5-fluoro-2-(2H-1,2,3-triazol-2-yl)phenyl]ethoxy}pyridin-3-yl)-3-methoxybenzamide] are 9.29 nM and 0.26 nM.
On the same counts, the results for `C[C@@H](Oc1cc(-c2ccc(CO)c(S(C)(=O)=O)c2)cnc1N)c1cc(F)ccc1-n1nccn1` [Example 119, [4-(6-amino-5-{(1R)-1-[5-fluoro-2-(2H-1,2,3-triazol-2-yl)phenyl]ethoxy}pyridin-3-yl)-2-(methylsulfonyl)phenyl]methanol] are 4.39 nM and less than 0.2 nM.
On the same counts, the results for `Cc1nc(C#N)c(-c2cnc(N)c(O[C@H](C)c3cc(F)ccc3-n3nccn3)c2)o1` [Example 120, 5-(6-amino-5-{(1R)-1-[5-fluoro-2-(2H-1,2,3-triazol-2-yl)phenyl]ethoxy}pyridin-3-yl)-2-methyl-1,3-oxazole-4-carbonitrile] are 161 nM and 2.14 nM.
With `C[C@@H](Oc1cc(-c2ccc(O)nc2)cnc1N)c1cc(F)ccc1-n1nccn1` [Example 121, 6′-amino-5′-{(1R)-1-[5-fluoro-2-(2H-1,2,3-triazol-2-yl)phenyl]ethoxy}-3,3′-bipyridin-6-ol], the 50% inhibitory concentration (IC50) in experiment [1] is 71.3 nM. For the same compound, the Ki in experiment [2] stood at 1.04 nM.

The record behind these values is patent US8916593B2, “Alkoxy-substituted 2-aminopyridines as ALK inhibitors” (Pfizer Inc., priority 2010, dated 2014).
